# Entries after “also recorded” stand apart in the source; their conditions may differ.
# Assays:
# [1] = tested on: (S)-α-phenethylamine:pyruvate transaminase; assay: Substrate specificity for amino group donors (dabsylated alanine quantified by HPLC); type: biochemical, Pseudomonas sp. KNK425; conditions: for Relative Activity (%): substance as amino group donor, 22.5 mM, 22.5 mM pyruvic acid, pH 7.0, 30° C., 1 hour, (S)-phenethylamine = 100, Table 2
# Method: The mixture was reacted at 30° C. for 1 hour, and thereafter immersed in boiling water for 5 minutes, to stop the reaction. The reaction mixture obtained after termination of reaction was diluted five times with 0.2M sodium carbonate buffer, and 0.2 mL of a 10 mM acetone solution of dabsyl chloride was added to 0.1 mL portion of the resulting dilution. The reaction mixture was reacted at 70° C. for 15 minutes, and after cooling, 0.1 mL of 1 N HCl was added. This reaction mixture was analyzed by high-performance liquid chromatography to quantify dabsylated alanine.
# (§1) The assay conditions by high-performance liquid chromatography are as follows.
# The results thereof, expressed in terms of the relative activity where an activity when using (S)-phenethylamine as an amino group donor is 100, are shown in Table 2.
# [2] = tested on: (S)-α-phenethylamine:pyruvate transaminase; assay: as above; type: biochemical, Pseudomonas sp. KNK425; conditions: substance as amino group donor; for Relative Activity (%): Table 1; for Relative Activity (%) of (S)-α-Phenethylamine:Pyruvate Transaminase [Present Invention]: Table 4
# [3] = tested on: (S)-α-phenethylamine:pyruvate transaminase; assay: Substrate specificity for amino group receptors (acetophenone quantified by HPLC); type: biochemical, Pseudomonas sp. KNK425
# Method: The mixture was reacted at 30° C. for 1 hour. The resulting reaction mixture was analyzed by high-performance liquid chromatography, to quantify acetophenone.
# as §1
# [4] = tested on: 4-aminobutyrate:2-ketoglutarate transaminase; conditions: substance as amino group donor; amino group receptor 2-ketoglutaric acid; Table 4; cited from earlier work
# [5] = tested on: ω-amino acid:pyruvate transaminase; conditions: substance as amino group donor; amino group receptor pyruvic acid; Table 4; cited from earlier work
# [6] = amino group receptor pyruvic acid
# [7] = ketone compound as amino group receptor, donor (S)-α-phenethylamine, same manner as Example 5, Table 5
# [8] = substance as amino group receptor, 22.5 mM, donor 22.5 mM (S)-α-phenethylamine, pH 7.0, 30° C., 1 hour, pyruvic acid = 100, Table 3
# [9] = compound as amino group receptor, donor (S)-α-phenethylamine, same manner as Example 5, Table 6
# [10] = amino group receptor 2-ketoglutaric acid
smiles,measurement,setting,value
NC(CCC(=O)O)C(=O)O (racemic) [DL-Glutamic Acid],Activity of the enzyme to the substance as amino group donor (in words),[1],does not act
same,Relative Activity (%),[2]; [6],0%
NCCCCC(N)C(=O)O (racemic) [DL-Lysine],Activity of the enzyme to the substance as amino group donor (in words),[1],not exhibiting activity; also recorded: does not act
same,Relative Activity (%),[2]; [6],0%
"COc1ccc(CC(C)N)cc1OC (stereo not shown) [1-(3,4-Dimethoxyphenyl)-2-aminopropane]",Relative Activity (%),[1],18%
CCC(=O)Cc1ccccc1 [1-Phenyl-2-butanone],Relative Activity (%),[3]; [7],5%
CC(N)CCc1ccccc1 (stereo not shown) [1-Phenyl-3-aminobutane],Relative Activity (%),[1],80%
CC(=O)c1ccco1 [2-Acetylfuran],Relative Activity (%),[3]; [7],3%
CC(=O)c1ccccn1 [2-Acetylpyridine],Relative Activity (%),[3]; [7],42%
CC(=O)c1nccs1 [2-Acetylthiazole],Relative Activity (%),[3]; [7],4%
CCC(C)N (stereo not shown) [2-Butylamine],Relative Activity (%),[1],1%
CCCCCC(C)N (stereo not shown) [2-Heptylamine],Relative Activity (%),[1],28%
CCCC(=O)C(=O)O [2-Keto-valeric acid],Relative Activity (%),[3]; [8],1.5%
CCC(=O)C(=O)O [2-Ketobutyric acid],Relative Activity (%),[3]; [8],5.8%
O=C(O)CCC(=O)C(=O)O [2-Ketoglutaric acid],Activity of the enzyme to the substance as amino group receptor (in words),[3],did not exhibit an activity; also recorded: does not act
same,Relative Activity (%),[3]; [8],0%
CCCCCCC(C)N (stereo not shown) [2-Octylamine],Relative Activity (%),[1],46%
CCCC(C)N (stereo not shown) [2-Pentylamine],Relative Activity (%),[1],4%
CC(=O)c1ccccc1O [2′-Hydroxyacetophenone],Relative Activity (%),[3]; [7],24%
CC(=O)c1cccnc1 [3-Acetylpyridine],Relative Activity (%),[3]; [7],14%
O=CCCc1ccccc1 [3-Phenylpropionaldehyde],Relative Activity (%),[3]; [9],16%
NCCCc1ccccc1 [3-Phenylpropylamine],Relative Activity (%),[1],1%
"COc1ccc(CC(C)=O)cc1OC [3′,4′-Dimethoxyphenyl acetone]",Relative Activity (%),[3]; [7],38%
CC(N)c1cccc(O)c1 (stereo not drawn) [3′-Hydroxy-α-phenethylamine],Relative Activity (%),[1],52%
CC(=O)c1cccc(O)c1 [3′-Hydroxyacetophenone],Relative Activity (%),[3]; [7],6%
COc1cccc(C(C)=O)c1 [3′-Methoxyacetophenone],Relative Activity (%),[3]; [7],4%
CC(=O)Cc1cccc(C(F)(F)F)c1 [3′-Trifluoromethylphenyl acetone],Relative Activity (%),[3]; [7],60%
COc1ccc(CCC(C)=O)cc1 [4-(4′-Methoxyphenyl)-2-butanone],Relative Activity (%),[3]; [7],35%
CC(=O)c1ccncc1 [4-Acetylpyridine],Relative Activity (%),[3]; [7],8%
NCCCC(=O)O [4-Aminobutyric acid],Activity of the enzyme to the substance as amino group donor (in words),[1],does not act
same,Relative Activity (%) of (S)-α-Phenethylamine:Pyruvate Transaminase [Present Invention],[2]; [10],0%
same,Relative Activity (%) of 4-Aminobutyrate:2-ketoglutarate Transaminase [Derived from Pseudomonas F-126],[4],100%
CC(=O)c1ccc(Cl)cc1 [4′-Chloroacetophenone],Relative Activity (%),[3]; [7],22%
COc1ccc(CC(C)=O)cc1 [4′-Methoxyphenyl acetone],Relative Activity (%),[3]; [7],12%
C[C@@H](N)c1ccccc1 [(R)-α-Phenethylamine],Relative Activity (%),[1],3%
C[C@H](N)c1ccccc1 [(S)-α-Phenethylamine],Activity of the enzyme to the substance as amino group donor (in words),[1],especially high activity; also recorded: specifically high activity; also recorded: exhibiting activity; also recorded: exhibits high activity
same,Relative Activity (%),[1],100%
same,Relative Activity (%),[2]; [6],100%
same,Relative Activity (%) of (S)-α-Phenethylamine:Pyruvate Transaminase [Present Invention],[2]; [6],100%
CC(=O)c1cnccn1 [Acetylpyrazine],Relative Activity (%),[3]; [7],100%
Cl.N [Ammonium Chloride],Activity of the enzyme to the substance as amino group donor (in words),[1],does not also act
same,Relative Activity (%),[2]; [6],0%
CCCCCN [Amylamine],Relative Activity (%),[1],5%
CC(=O)CC(=O)c1ccccc1 [Benzoyl acetone],Relative Activity (%),[3]; [7],12%
CC(=O)CCc1ccccc1 [Benzyl acetone],Relative Activity (%),[3]; [7],70%
NCc1ccccc1 [Benzylamine],Relative Activity (%),[1],13%
NC1CCCCC1 [Cyclohexylamine],Relative Activity (%),[1],1%
NCC(=O)O [Glycine],Activity of the enzyme to the substance as amino group donor (in words),[1],does not act
same,Relative Activity (%),[2]; [6],0%
O=CC(=O)O [Glyoxylic acid],Activity of the enzyme to the substance as amino group receptor (in words),[3],high activity; also recorded: exhibiting activity; also recorded: exhibits activity
same,Relative Activity (%),[3]; [8],100%
CC(C)N [Isopropylamine],Relative Activity (%),[1],0%
N[C@@H](CC(=O)O)C(=O)O [L-Aspartic Acid],Activity of the enzyme to the substance as amino group donor (in words),[1],does not act
same,Relative Activity (%),[2]; [6],0%
COCC(C)=O [Methoxypropanone],Relative Activity (%),[3]; [9],5%
CC(=O)COc1ccccc1 [Phenoxy-2-propanone],Relative Activity (%),[3]; [9],46%
O=CCc1ccccc1 [Phenylacetaldehyde],Relative Activity (%),[3]; [9],37%
NCCCCN [Putrescine],Activity of the enzyme to the substance as amino group donor (in words),[1],does not act; also recorded: not exhibiting activity
same,Relative Activity (%) of (S)-α-Phenethylamine:Pyruvate Transaminase [Present Invention],[2]; [10],0%
same,Relative Activity (%) of (S)-α-Phenethylamine:Pyruvate Transaminase [Present Invention],[2]; [6],0%
same,Relative Activity (%) of 4-Aminobutyrate:2-ketoglutarate Transaminase [Derived from Pseudomonas F-126],[4],8%
same,Relative Activity (%) of ω-Amino acid:Pyruvate Transaminase [Derived from Pseudomonas F-126],[5],18%
CC(=O)C(=O)O [Pyruvic acid],Activity of the enzyme to the substance as amino group receptor (in words),[3],high activity; also recorded: exhibiting activity; also recorded: exhibits activity
same,Relative Activity (%),[3]; [9],100%
same,Relative Activity (%),[3]; [8],100%
NCCS(=O)(=O)O [Taurine],Activity of the enzyme to the substance as amino group donor (in words),[1],does not act; also recorded: not exhibiting activity
same,Relative Activity (%) of (S)-α-Phenethylamine:Pyruvate Transaminase [Present Invention],[2]; [6],0%
same,Relative Activity (%) of ω-Amino acid:Pyruvate Transaminase [Derived from Pseudomonas F-126],[5],132%
CCCCN [n-Butylamine],Relative Activity (%),[1],2%
CCCN [n-Propylamine],Relative Activity (%),[1],0%
NCCC(=O)O [β-Alanine],Activity of the enzyme to the substance as amino group donor (in words),[1],does not act; also recorded: not exhibiting activity
same,Relative Activity (%) of (S)-α-Phenethylamine:Pyruvate Transaminase [Present Invention],[2]; [10],0%
same,Relative Activity (%) of (S)-α-Phenethylamine:Pyruvate Transaminase [Present Invention],[2]; [6],0%
same,Relative Activity (%) of 4-Aminobutyrate:2-ketoglutarate Transaminase [Derived from Pseudomonas F-126],[4],0%
same,Relative Activity (%) of ω-Amino acid:Pyruvate Transaminase [Derived from Pseudomonas F-126],[5],100%
NCCc1ccccc1 [β-Phenethylamine],Relative Activity (%),[1],23%
